Test results published in paper PMC7914897, “Cytotoxic Potential of a-Azepano- and 3-Amino-3,4-SeCo-Triterpenoids” (International Journal of Molecular Sciences, 2021).
Read-outs that look alike come from different tables or passages of the source.

How the values were obtained:
[1] = tested on: MCF7 (Breast cancer); assay: NCI-60 screen (SRB, 48 h); details: Homo sapiens
[2] = tested on: NCI-H460 (NSC lung cancer); assay: NCI-60 screen (SRB, 48 h); details: Homo sapiens
[3] = tested on: COLO 205 (Colon cancer); assay: NCI-60 screen (SRB, 48 h); details: Homo sapiens
[4] = tested on: SK-OV-3 (Ovarian cancer); assay: NCI-60 screen (SRB, 48 h); details: Homo sapiens
[5] = tested on: Melanoma subpanel; assay: NCI-60 screen, subpanel; details: Homo sapiens
[6] = tested on: HCC-2998 (Colon cancer); assay: NCI-60 screen (SRB, 48 h); details: Homo sapiens
[7] = tested on: UACC-62 (Melanoma); assay: NCI-60 screen (SRB, 48 h); details: Homo sapiens
[8] = tested on: ACHN (Renal cancer); assay: NCI-60 screen (SRB, 48 h); details: Homo sapiens
[9] = tested on: Breast cancer subpanel; assay: NCI-60 screen, subpanel; details: Homo sapiens
[10] = tested on: RXF 393 (Renal cancer); assay: NCI-60 screen (SRB, 48 h); details: Homo sapiens
[11] = tested on: BT-549 (Breast cancer); assay: NCI-60 screen (SRB, 48 h); type: cell-based; details: Homo sapiens
[12] = tested on: UO-31 (Renal cancer); assay: NCI-60 screen (SRB, 48 h); details: Homo sapiens
[13] = tested on: M14 (Melanoma); assay: NCI-60 screen (SRB, 48 h); details: Homo sapiens
[14] = tested on: HOP-62 (NSC lung cancer); assay: NCI-60 screen (SRB, 48 h); details: Homo sapiens
[15] = tested on: Renal Cancer subpanel; assay: NCI-60 screen, subpanel; details: Homo sapiens
[16] = tested on: OVCAR-3 (Ovarian cancer); assay: cells; details: Homo sapiens
[17] = tested on: A498 (Renal cancer); assay: NCI-60 screen (SRB, 48 h); details: Homo sapiens
[18] = tested on: SW-620 (Colon cancer); assay: NCI-60 screen (SRB, 48 h); details: Homo sapiens
[19] = tested on: PC-3 (Prostate cancer); assay: NCI-60 screen (SRB, 48 h); details: Homo sapiens
[20] = tested on: panel of approximately 60 cancer cell lines; assay: NCI-60 screen (SRB, 48 h), full panel
[21] = tested on: Ovarian Cancer subpanel; assay: NCI-60 screen, subpanel; details: Homo sapiens
[22] = tested on: NCI-H322M (NSC lung cancer); assay: NCI-60 screen (SRB, 48 h); details: Homo sapiens
[23] = tested on: SK-MEL-2 (Melanoma); assay: NCI-60 screen (SRB, 48 h); details: Homo sapiens
[24] = tested on: NCI-H226 (NSC lung cancer); assay: NCI-60 screen (SRB, 48 h); details: Homo sapiens
[25] = tested on: SNB-75 (CNS cancer); assay: NCI-60 screen (SRB, 48 h); details: Homo sapiens
[26] = tested on: LOX IMVI (Melanoma); assay: NCI-60 screen (SRB, 48 h); type: cell-based; details: Homo sapiens
[27] = tested on: NSC lung cancer subpanel; assay: NCI-60 screen, subpanel; details: Homo sapiens
[28] = tested on: DU-145 (Prostate cancer); assay: NCI-60 screen (SRB, 48 h); details: Homo sapiens

C=C(C)C1CCC2(CO)CCC3(C)C(CCC4C5(C)CCCNC(C)(C)C5CCC43C)C12 (stereo not shown) [Compound 1, Azepanobetulin]
GI50 ([1]; MCF7): 1.29 µM | IC (TGI) ([1]; MCF7, 48 h, read-out: TGI): 2.77 µM | CC50 ([1]; MCF7, read-out: LC50): 5.94 µM | GI50 ([2]; NCI-H460): 1.63 µM | IC (TGI) ([2]; NCI-H460, 48 h, read-out: TGI): 3.21 µM | CC50 ([2]; NCI-H460, read-out: LC50): 6.3 µM | GI50 ([3]; COLO 205): 1.54 µM | IC (TGI) ([3]; COLO 205, 48 h, read-out: TGI): 3.24 µM | CC50 ([3]; COLO 205, read-out: LC50): 6.82 µM | GI50 ([4]; SK-OV-3): 1.83 µM | IC (TGI) ([4]; SK-OV-3, 48 h, read-out: TGI): 3.49 µM | CC50 ([4]; SK-OV-3, read-out: LC50): 6.64 µM | IC (TGI) ([5]; 48 h, read-out: TGI MG_MID): 3.19 µM | GI50 ([5]; read-out: GI50 MG_MID): 1.64 µM | CC50 ([5]; read-out: LC50 MG_MID): 6.12 µM | GI50 ([6]; HCC 2998): 1.51 µM | IC (TGI) ([6]; HCC 2998, 48 h, read-out: TGI): 2.93 µM | CC50 ([6]; HCC 2998, read-out: LC50): 5.68 µM | GI50 ([7]; UACC-62): 1.82 µM | IC (TGI) ([7]; UACC-62, 48 h, read-out: TGI): 3.25 µM | CC50 ([7]; UACC-62, read-out: LC50): 5.8 µM | GI50 [8]: 1.7 µM | IC (TGI) ([8]; 48 h, read-out: TGI): 3.09 µM | CC50 ([8]; read-out: LC50): 5.61 µM | IC (TGI) ([9]; 48 h, read-out: TGI MG_MID): 3.55 µM | GI50 ([9]; read-out: GI50 MG_MID): 1.71 µM | CC50 ([9]; read-out: LC50 MG_MID): 11.5 µM | GI50 ([10]; RXF 393): 1.68 µM | IC (TGI) ([10]; RXF 393, 48 h, read-out: TGI): 3.18 µM | CC50 ([10]; RXF 393, read-out: LC50): 6.04 µM | GI50 ([11]; BT-549): 1.79 µM | IC (TGI) ([11]; BT-549, 48 h): 3.46 µM | GI50 ([12]; UO-31): 1.56 µM | IC (TGI) ([12]; UO-31, 48 h, read-out: TGI): 2.99 µM | CC50 ([12]; UO-31, read-out: LC50): 5.74 µM | GI50 ([13]; M14): 1.58 µM | IC (TGI) ([13]; M14, 48 h, read-out: TGI): 3.13 µM | CC50 ([13]; M14, read-out: LC50): 6.19 µM | GI50 ([14]; HOP-62): 1.81 µM | IC (TGI) ([14]; HOP-62, 48 h, read-out: TGI): 3.42 µM | CC50 ([14]; HOP-62, read-out: LC50): 6.46 µM | IC (TGI) ([15]; 48 h, read-out: TGI MG_MID): 3.43 µM | GI50 ([15]; read-out: GI50 MG_MID): 1.71 µM | CC50 ([15]; read-out: LC50 MG_MID): 9.33 µM | GI50 ([16]; OVCAR-3): 1.66 µM | IC (TGI) ([16]; OVCAR-3, 48 h, read-out: TGI): 3.13 µM | CC50 ([16]; OVCAR-3, read-out: LC50): 5.91 µM | GI50 ([17]; A498): 2.17 µM | IC (TGI) ([17]; A498, 48 h, read-out: TGI): 5.63 µM | CC50 ([17]; A498, read-out: LC50): 33 µM | GI50 ([18]; SW-620): 1.81 µM | IC (TGI) ([18]; SW-620, 48 h, read-out: TGI): 3.41 µM | CC50 ([18]; SW-620, read-out: LC50): 6.44 µM | GI50 ([19]; PC-3): 2.94 µM | IC (TGI) ([19]; PC-3, 48 h, read-out: TGI): 2.94 µM | CC50 ([19]; PC-3, read-out: LC50): 5.74 µM | Positive Cytostatic Effect (cell lines with percent growth 0 to 50 / total) ([20]; 1 dose 10 µM): 27/59 | number of cancer cell lines the compound was active against ([20]; 1 dose 10 µM): 28 cell lines | activity at 10 µM ([20]; Homo sapiens, 48 h, read-out: Mean Growth, %): 20.8% | activity at 10 µM ([20]; Homo sapiens, 48 h, read-out: Range of Growth, %): -82.5 to 84.4% | IC (TGI) ([20]; Homo sapiens, 48 h, read-out: TGI MG_MID60, average over all cell lines): 3.34 µM | GI50 ([20]; Homo sapiens, read-out: GI50 MG_MID60): 1.7 µM | GI50 ([20]; Homo sapiens, read-out: GI50 against all human tumor cell lines): < 3 µM | IC (TGI) ([21]; 48 h, read-out: TGI MG_MID): 3.18 µM | GI50 ([21]; read-out: GI50 MG_MID): 1.65 µM | CC50 ([21]; read-out: LC50 MG_MID): 6.24 µM | GI50 [22]: 1.63 µM | IC (TGI) ([22]; 48 h, read-out: TGI): 3.03 µM | CC50 ([22]; read-out: LC50): 5.64 µM | GI50 ([23]; SK-MEL-2): 1.84 µM | IC (TGI) ([23]; SK-MEL-2, 48 h, read-out: TGI): 3.75 µM | GI50 ([24]; NCI-H226): 1.98 µM | IC (TGI) ([24]; NCI-H226, 48 h, read-out: TGI): 4.09 µM | CC50 ([24]; NCI-H226, read-out: LC50): 8.43 µM | GI50 ([25]; SNB-75): 1.54 µM | IC (TGI) ([25]; SNB-75, 48 h, read-out: TGI): 2.91 µM | CC50 ([25]; SNB-75, read-out: LC50): 5.5 µM | IC (TGI) ([26]; 48 h): 3.03 µM | GI50 ([26]; read-out: GI50): 1.51 µM | IC (TGI) ([27]; 48 h, read-out: TGI MG_MID): 3.35 µM | GI50 ([27]; read-out: GI50 MG_MID): 1.71 µM | CC50 ([27]; read-out: LC50 MG_MID): 6.49 µM | GI50 ([28]; DU-145): 3.02 µM | IC (TGI) ([28]; DU-145, 48 h, read-out: TGI): 3.02 µM | CC50 ([28]; DU-145, read-out: LC50): 5.58 µM
